Experimental data as given in US12358999B2, “Protein recognizing drug moiety of antibody-drug conjugate” (DAIICHI SANKYO COMPANY, LIMITED, priority 2018, dated 2025).
Where a name gives a salt, the structure may show the parent alone.

Key:
[1] = system: mouse antibody 1A3; experiment: Competitive inhibition with HER2-ADC (I), chemical structure recognized by mouse antibody 1A3 (Gyrolab); format: binding; conditions: compound 1 and 100 μg/mL dilution solutions; response at HER2-ADC (I) 250 ng/mL
Description: The chemical structure to be recognized by mouse antibody 1A3 was checked by competitive inhibition with HER2-ADC (I) using Gyrolab xP workstation (GYROS PROTEIN Technologies). As the compound for use in competitive inhibition, compound (1), compound (2), compound (7), compound (8), compound (9), compound (10), compound (11), Topotecan and Rubitecan were selected.
As the capture reagent, mouse antibody 1A3 labeled with biotin by a labeling kit (ChromaLink Biotin Protein LABELING Kit, Solulink) was used. The concentration thereof was controlled to be 700 nM with 0.1% PS20-containing PBS. The compounds for use in competitive inhibition, compound (1), compound (2), compound (7), compound (8), compound (9), compound (10), compound (11), Topotecan and Rubitecan were separately dissolved in DMSO. The solutions each was diluted with 10% or 20% DMSO in Rexxip HN (GYROS PROTEIN Technologies) to prepare 0, 1 and 100 μg/mL dilution solutions. To each of them, the 700 nM mouse antibody 1A3 solution was added in an equal amount. The mixture was stirred and allowed to react at room temperature in a dark place for one hour or more. The concentration of HER2-ADC (I) was controlled with Rexxip HN to be 0, 0.244, 0.977, 3.91, 15.6, 62.5, 250 and 1000 ng/mL. As the detection reagent, Mouse Anti-(Anti-HER2 Ab) idiotype Ab (13C1) (IBL) was labeled by DyLight650 (registered trademark) labeling kit and put in use. The concentration thereof was controlled with Rexxip F (GYROS PROTEIN Technologies) to be 10 nM. The above solution was set at Gyrolab xP workstation and measurement was carried out by use of Gyrolab Bioaffy 200 at 200-3W-002-A (PMT5). The regression analysis was carried out by use of Gyrolab Evaluator 3.4.0.24 in 4-parametric logistic model (weight: Response). The calibration curve of HER2-ADC (I) was prepared per concentration of the competitive inhibition compound. The inhibition rate (%) was calculated by comparing the response at an HER2-ADC (I) concentration of 250 ng/mL to that of the case where no compound was added (concentration 0 ng/mL).

[2] = system: sera of BALB/c mice and BDF1 mice after immunization; experiment: Inhibition ELISA of immunized mouse sera on immobilized antigen protein (2); format: binding; conditions: sera diluted 50000 fold; compound 12.5-100 μg/mL
Procedure: To the sera of BALB/c mice (4 individuals) and BDF1 mice (4 individuals) after immunization through four administrations, compound (6), compound (7) and compound (1) as positive controls and compound (8) as a negative control were added and the unabsorption rate to antigen protein (2) was calculated. The mouse sera diluted to 50000 fold and compound (6), compound (8), compound (7) and compound (1), which were prepared to have a concentration of 12.5, 25, 50 and 100 μg/mL, were mixed and allowed to react at 4° C. overnight, and then, added to ELISA immunoplates having the antigen protein (2) immobilized thereon and allowed to react at 37° C. for 30 minutes. After washing, anti-mouse IgG-HRP was allowed to react at 37° C. for 30 minutes. After washing, an OPD solution was added. After termination of color development, absorbance at 490 nm was measured. The unabsorption rate was calculated in accordance with the following expression: Unabsorption rate(%)=(a/b)×100
a: Absorbance of positive control or negative control at an addition concentration of 12.5 μg/mL
b: Absorbance of a sample not containing positive control or a sample not containing a negative control

[3] = biological target: T1, topoisomerase I (Homo sapiens, UniProt P11387); conditions: cited from earlier work
T1 sequence (P11387 1-765): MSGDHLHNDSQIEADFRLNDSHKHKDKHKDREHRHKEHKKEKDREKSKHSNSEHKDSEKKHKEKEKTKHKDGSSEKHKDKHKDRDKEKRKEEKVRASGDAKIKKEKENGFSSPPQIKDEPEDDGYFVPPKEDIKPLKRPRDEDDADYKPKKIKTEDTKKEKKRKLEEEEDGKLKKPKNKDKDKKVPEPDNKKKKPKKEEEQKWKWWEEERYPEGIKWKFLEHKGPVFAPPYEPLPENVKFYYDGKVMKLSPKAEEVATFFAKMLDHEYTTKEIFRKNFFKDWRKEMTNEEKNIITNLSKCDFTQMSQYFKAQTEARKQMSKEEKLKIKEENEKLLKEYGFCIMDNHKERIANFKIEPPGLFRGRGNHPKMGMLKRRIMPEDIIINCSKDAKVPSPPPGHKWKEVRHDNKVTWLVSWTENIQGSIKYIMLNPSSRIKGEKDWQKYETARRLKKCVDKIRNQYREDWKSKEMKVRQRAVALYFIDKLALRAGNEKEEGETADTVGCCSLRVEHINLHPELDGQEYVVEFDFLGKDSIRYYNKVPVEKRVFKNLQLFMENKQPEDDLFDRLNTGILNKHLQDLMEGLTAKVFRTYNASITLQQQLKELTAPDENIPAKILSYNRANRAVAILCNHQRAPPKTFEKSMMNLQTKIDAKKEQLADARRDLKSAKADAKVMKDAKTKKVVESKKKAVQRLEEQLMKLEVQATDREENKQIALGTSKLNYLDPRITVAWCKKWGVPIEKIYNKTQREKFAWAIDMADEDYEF

Row | Structure (SMILES) | competitive inhibition of recognition of mouse antibody 1A3 to HER2-ADC (I) (inhibition rate, FIG. 41) [1] | inhibition effect on binding of mouse sera to antigen protein (2) (unabsorption rate) [2] | topoisomerase I inhibitory activity [3]
1 | CC[C@@]1(O)C(=O)OCc2c1cc1n(c2=O)Cc2c-1nc1cccc3c1c2C(N)CC3 (stereo partly shown) [compound (10)] | did not exhibit competitive inhibition |  | 
2 | NCCCC(=O)NC1CCCCC1 [compound (8), 4-amino-N-cyclohexyl-butanamide Hydrochloride] | did not exhibit competitive inhibition | in none of the plasmas, a high inhibition effect | 
3 | CC[C@@]1(O)C(=O)OCc2c1cc1n(c2=O)Cc2cc3c(CN(C)C)c(O)ccc3nc2-1 [Topotecan] | did not exhibit competitive inhibition |  | 
4 | CC[C@@]1(O)C(=O)OCc2c1cc1n(c2=O)Cc2c-1nc1cc(F)c(C)c3c1c2[C@@H](NC(=O)CCCNC(=O)CCCCCCC(=O)ON1C(=O)CCC1=O)CC3 [compound (6), 8-[(2,5-dioxopyrrolidin-1-yl)oxy]-N-(4-{[(1S,9S)-9-ethyl-5-fluoro-9-hydroxy-4-methyl-10,13-dioxo-2,3,9,10,13,15-hexahydro-1H,12H-benzo[de]pyrano[3′,4′:6,7]indolizino[1,2-b]quinolin-1-yl]amino}-4-oxobutyl)-8-oxooctane Amide] |  | high inhibition effect | 
5 | CC[C@@]1(O)C(=O)OCc2c1cc1n(c2=O)Cc2c-1nc1ccc(C)c3c1c2CCC3 [compound (9)] | strong competitive inhibition |  | 
6 | CC[C@@]1(O)C(=O)OCc2c1cc1n(c2=O)Cc2c-1nc1cc(F)c(CO)c3c1c2[C@@H](N)CC3 [compound (11)] | did not exhibit competitive inhibition |  | 
7 | CC[C@@]1(O)C(=O)OCc2c1cc1n(c2=O)Cc2cc3c([N+](=O)[O-])cccc3nc2-1 [Rubitecan] | did not exhibit competitive inhibition |  | 
8 | CC[C@]1(O)c2cc3n(c(=O)c2COC1O)Cc1c-3nc2cc(F)c(C)c3c2c1[C@@H](NC(=O)CCCN)CC3 (stereo partly drawn) [compound (7), 4-amino-N-[(1S,9S)-9-ethyl-5-fluoro-9,10-dihydroxy-4-methyl-13-oxo-2,3,9,10,13,15-hexahydro-1H,12H-benzo[de]pyrano[3′,4′:6,7]indolizino[1,2-b]quinolin-1-yl] butanamide Trifluoroacetate] | strong competitive inhibition | in some individuals have a high inhibition effect | 
9 | CC[C@@]1(O)C(=O)OCc2c1cc1n(c2=O)Cc2c-1nc1cc(F)c(C)c3c1c2[C@@H](N)CC3 [compound (1), (1S,9S)-1-amino-9-ethyl-5-fluoro-1,2,3,9,12,15-hexahydro-9-hydroxy-4-methyl-10H,13H-benzo[de]pyrano[3′,4′:6,7]indolizino[1,2-b]quinoline-10,13-dione, reference compound] | strong competitive inhibition | high inhibition effect | topoisomerase I inhibitory activity
